IC50, inhibition and Activity data for 10 compounds are collected here from ChEMBL document CHEMBL4482302, “Inhibitors of rac1 and uses thereof for inducing bronchodilatation” (2018).

Each structure is given as a SMILES string. Activity calls are given as the source filed them. No cut-off for these calls is given here.

In test [1] the target is Ras-related C3 botulinum toxin substrate 1 (Mus musculus, UniProt P63001). The experiment in a line: Inhibition of Rac1 activation in mouse NIH/3T3 cells lysates pre-incubated for 1 hr before addition of Rac activator stimulation by immunoblot analysis based pull-down assay relative to control. The class given is subcellular, Lysate.
The target in test [2] is Ras-related C3 botulinum toxin substrate 1 (Mus musculus) (UniProt P63001). Briefly: Inhibition of Rac1 activation in mouse NIH/3T3 cells lysates pre-incubated for 1 hr before addition of Rac activator stimulation by immunoblot analysis based pull-down assay. In kind it is subcellular. The settings on record: Lysate. In general terms: Immunoblotting shows a protein as a band on a membrane.

Test [3] shares this target. The experiment in a line: Binding affinity to mouse Rac1 by SPR assay. A general note: SPR reads the build-up and loss of mass on a sensor chip optically.
Test [4] shares this target. The experiment in a line: Inhibition of Rac1 in mouse airways smooth muscle cells assessed as reduction in methacholine-induced maximal contraction pre-incubated for 1 hrs before methacholine addition.
Test [5] deals with Transforming protein RhoA (Mus musculus) (UniProt Q9QUI0). The experiment in a line: Inhibition of mouse RhoA assessed as decrease in B-max for GTP-binding on Rac1 by mant-GTP binding kinetics real-time assay.
Chain of Transforming protein RhoA (Mus musculus) (Q9QUI0 whole entry): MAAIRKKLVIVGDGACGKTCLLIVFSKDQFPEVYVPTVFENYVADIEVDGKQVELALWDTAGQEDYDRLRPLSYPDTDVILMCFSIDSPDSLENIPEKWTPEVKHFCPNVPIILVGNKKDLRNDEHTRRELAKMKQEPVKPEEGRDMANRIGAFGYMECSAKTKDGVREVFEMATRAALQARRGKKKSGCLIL
Test [6] concerns the target Ras-related protein Rab-35 (Mus musculus) (UniProt Q6PHN9). The experiment in a line: Inhibition of mouse Rab35 assessed as decrease in B-max for GTP-binding on Rac1 by mant-GTP binding kinetics real-time assay.
Test [7] concerns the target Rho-related GTP-binding protein RhoG (Mus musculus) (UniProt P84096). The experiment in a line: Inhibition of mouse RhoG assessed as decrease in B-max for GTP-binding on Rac1 by mant-GTP binding kinetics real-time assay.
Test [8] addresses Ras-related C3 botulinum toxin substrate 1 (Mus musculus) (UniProt P63001). The experiment in a line: Inhibition of Rac1 in mouse NIH/3T3 cells assessed as reduction in Rac activator-stimulated cell adhesion measured every 5 mins for 6 hrs by xCELLigence assay. The class given is cell-based.
For test [9] the target is unchanged. The experiment in a line: Inhibition of Rac1 in mouse NIH/3T3 cells assessed as reduction in Rac activator-stimulated cell migration incubated for 24 hrs. In kind it is cell-based.
The target of test [10] is Cell division control protein 42 homolog (Mus musculus) (UniProt P60766). Briefly: Binding affinity to mouse Cdc42 by SPR assay.
Chain of Cell division control protein 42 homolog (Mus musculus) (P60766 whole entry, looked up): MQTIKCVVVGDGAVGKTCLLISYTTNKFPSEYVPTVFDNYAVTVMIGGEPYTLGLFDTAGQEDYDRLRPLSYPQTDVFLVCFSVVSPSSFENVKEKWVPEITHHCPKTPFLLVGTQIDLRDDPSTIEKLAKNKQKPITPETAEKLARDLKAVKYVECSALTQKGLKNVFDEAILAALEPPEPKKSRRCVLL
Test [11] addresses Ras-related C3 botulinum toxin substrate 2 (Mus musculus) (UniProt Q05144). Briefly: Inhibition of mouse Rac2 assessed as decrease in B-max for GTP-binding on Rac1 by mant-GTP binding kinetics real-time assay.
In test [12] the target is Ras-related C3 botulinum toxin substrate 1 (Mus musculus) (UniProt P63001). The experiment in a line: Binding affinity to mouse Rac1 in presence of EDTA by SPR assay.
The subject of a further test is Mus musculus. Briefly: Suppression of airway hyperresponsiveness in mouse model of percutaneous sensitization and house dust mite extract intranasal challenge-induced human allergic asthma dosed via nebulization 10 mins before methacholine challenge. The class given is functional, organism-based.
For test [13], the target named is ADP-ribosylation factor 6 (Mus musculus) (UniProt P62331). The experiment in a line: Inhibition of mouse Arf6 assessed as decrease in B-max for GTP-binding on Rac1 by mant-GTP binding kinetics real-time assay.
Chain of ADP-ribosylation factor 6 (Mus musculus) (P62331 whole entry): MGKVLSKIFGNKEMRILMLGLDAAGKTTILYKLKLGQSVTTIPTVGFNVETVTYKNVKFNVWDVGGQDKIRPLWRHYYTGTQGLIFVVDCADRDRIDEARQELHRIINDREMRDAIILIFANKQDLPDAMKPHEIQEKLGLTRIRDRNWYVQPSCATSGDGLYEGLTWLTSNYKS
Test [14] concerns the target Ras-related C3 botulinum toxin substrate 1 (Mus musculus) (UniProt P63001). Briefly: Inhibition of Rac1 in mouse NIH/3T3 cells assessed as reduction in Rac activator-stimulated membrane ruffling. The class given is cell-based.
Test [15] shares this target. The experiment in a line: Inhibition of mouse Rac1 assessed as decrease in B-max for GTP-binding on Rac1 by mant-GTP binding kinetics real-time assay.
Test [16] deals with Transforming protein RhoA (Mus musculus) (UniProt Q9QUI0). Briefly: Binding affinity to mouse RhoA by SPR assay.

Chain of Ras-related protein Rab-35 (Mus musculus) (Q6PHN9 whole entry): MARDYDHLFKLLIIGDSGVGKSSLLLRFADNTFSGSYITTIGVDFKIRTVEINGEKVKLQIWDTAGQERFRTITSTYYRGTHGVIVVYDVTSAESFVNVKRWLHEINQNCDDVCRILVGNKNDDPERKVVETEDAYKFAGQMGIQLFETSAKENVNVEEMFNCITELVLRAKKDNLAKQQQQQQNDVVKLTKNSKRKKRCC
Chain of Rho-related GTP-binding protein RhoG (Mus musculus) (P84096 whole entry): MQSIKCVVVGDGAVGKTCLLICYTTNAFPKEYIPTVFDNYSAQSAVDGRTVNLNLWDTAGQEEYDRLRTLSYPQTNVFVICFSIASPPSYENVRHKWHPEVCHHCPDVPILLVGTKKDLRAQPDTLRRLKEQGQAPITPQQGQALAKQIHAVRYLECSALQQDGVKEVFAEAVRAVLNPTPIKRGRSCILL

For orientation: IC50 means the concentration that gives 50% inhibition. A lower IC50 goes with inhibition by little substance. For `COc1ccc(NS(=O)(=O)c2ccc(NC(=O)CCSc3ccc(C)cc3)cc2)c(OC)c1`, in test [1], the IC50 was determined as 30 nM.
On the same count and under the same terms, with `COc1ccccc1NS(=O)(=O)c1ccc(N)cc1` the figure was 1 nM; with `COc1cccc(NS(=O)(=O)c2ccc(N)cc2)c1`, 1 nM; with `COc1ccccc1NS(=O)(=O)c1ccc(NC(=O)CSc2ccc(C)cc2)cc1`, 1 nM.
Consider `COc1ccc(OC)c(NS(=O)(=O)c2ccc(NC(=O)CCSc3ccc(C)cc3)cc2)c1`, for which the inhibition result in [2], in [4], in [8], in [9], in [11] and in test [15] was “Active” throughout. Further, the outcome (in [3]; in test [12]; with Mus musculus) was Active. For the same compound, the inhibition entry in [5], in test [6], in [7] and in test [13] was “inactive” each time. In [1], this compound showed an IC50 of 1 nM. The outcome in test [10] and in test [16] was inactive. Further, the inhibition entry in test [14] was “Dose-dependent effect”.
Regarding `COc1ccc(OC)c(NS(=O)(=O)c2ccc(NC(=O)CCOc3ccc(C)cc3)cc2)c1`, in [1], 1 nM corresponded to half-maximal inhibition (IC50).
The same measure, in the same setting: as for `C=CC(=O)Nc1ccc(S(=O)(=O)Nc2cc(OC)ccc2OC)cc1`, the figure is 0.1 nM; as for `COc1ccccc1NS(=O)(=O)c1ccc([N+](=O)[O-])cc1`, 1 nM.
Turning to `CCN(CC)CCCC(C)Nc1nc(C)cc(Nc2ccc3nc(C)cc(N)c3c2)n1` (centres undefined), the inhibition entry in test [2], in test [8] and in [9] was “Active” each time. The inhibition entry in test [14] was “Dose-dependent effect”.
In the case of `COc1ccccc1NS(=O)(=O)c1ccc(NC(=O)CCSc2ccc(C)cc2)cc1`, in [1], the IC50 was found to be 1 nM.
